Measurements taken from patent US20260364030A1, “NOVEL SELECTIVE INHIBITORS OF LYSYL OXIDASES” (Syntara Limited, priority 2022, published 2026).
Where two headings read alike, the source gives them in different places.

Columns and labels:
[1] = test system: breast cancer model (MMTV-PyMT); conditions: cited from earlier work
[2] = test system: massive, pedunculated keloids; conditions: cited from earlier work
[3] = target: T1, LOXL2 (Homo sapiens, UniProt Q9Y4K0); assay: LOXL2 inhibition, Amplex Red oxidation assay; format: biochemical; conditions: 2 h incubation with enzyme at 37 °C; read-out: Human LOXL2 Activity IC50
T1 sequence (Q9Y4K0 26-774): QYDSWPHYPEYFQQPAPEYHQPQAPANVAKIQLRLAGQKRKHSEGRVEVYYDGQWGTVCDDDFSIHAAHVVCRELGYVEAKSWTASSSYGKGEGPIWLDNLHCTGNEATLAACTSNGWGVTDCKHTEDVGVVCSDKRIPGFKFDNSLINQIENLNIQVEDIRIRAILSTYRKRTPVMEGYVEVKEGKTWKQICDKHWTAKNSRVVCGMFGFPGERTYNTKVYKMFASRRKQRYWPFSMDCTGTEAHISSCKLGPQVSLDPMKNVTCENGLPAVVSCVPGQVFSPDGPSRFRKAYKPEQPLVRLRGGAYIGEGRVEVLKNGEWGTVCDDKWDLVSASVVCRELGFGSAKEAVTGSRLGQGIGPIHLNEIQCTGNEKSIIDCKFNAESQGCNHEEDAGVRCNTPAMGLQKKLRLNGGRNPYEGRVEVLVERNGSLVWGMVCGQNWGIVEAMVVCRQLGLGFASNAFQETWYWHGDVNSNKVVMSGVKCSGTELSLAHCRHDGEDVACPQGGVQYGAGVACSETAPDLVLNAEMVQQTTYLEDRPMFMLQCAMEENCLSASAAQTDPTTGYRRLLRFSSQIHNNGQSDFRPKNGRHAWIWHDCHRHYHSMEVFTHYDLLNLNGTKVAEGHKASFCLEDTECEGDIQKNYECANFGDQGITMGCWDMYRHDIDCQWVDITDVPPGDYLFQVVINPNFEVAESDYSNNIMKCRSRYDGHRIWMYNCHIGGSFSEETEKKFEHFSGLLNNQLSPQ
Experimental: (§1) LOX and LOXL protein family members can be acquired as recombinant active proteins from commercial sources, or extracted from animal tissues like bovine aorta, tendons, pig skin; or prepared from cell cultures. The inhibitory effects of the compounds of the present invention were tested against the given LOX or LOXL preparation using a method based on the detection of hydrogen peroxide with an Amplex Red oxidation assay [Zhou et al, 1997]. The assay was developed using either 384 or 96 well format. Briefly, in a standard black, clear bottom 384 well plate assay 25 µL of a dilution of any of the isoenzymes and orthologues in 1.2 M urea, 50 mM sodium borate buffer (pH 8.2) were added into each well in the presence of […] and 0.5 mM pargyline (to inhibit SSAO and MAO-B and MAO-A, respectively; not necessary if the enzyme is from a recombinant or purified form). […] of a reaction mixture containing twice the KM concentration of putrescine (Sigma Aldrich, e.g. 20 mM for LOX and LOXL1 or 10 mM for LOXL2 and 4 mM for LOXL3 and LOXL4), 120 µM Amplex Red (Thermo Fisher Scientific) and 1.5 U/mL horseradish peroxidase (Sigma Aldrich) prepared in 1.2 M urea, 50 mM sodium borate buffer (pH 8.2) were then added to the corresponding wells. The above volumes were doubled in the case of 96 wells plate. The fluorescence (RFU) was read every 2.5 min for 30 min at 37 °C, excitation 544 nm and emission 590 (Optima; BMG labtech). The slope/min of the kinetics for each well was calculated using MARS data analysis software (BMG labtech) and this value was used to deduce the IC50 value (Dotmatics). The ability of the inventive compounds to inhibit the amine oxidase activity of LOX and other family members is shown in Table 5.

[4] = target: T2, Bovine LOX (Bos taurus, UniProt P33072); assay: LOX inhibition, hydrogen peroxide Amplex Red oxidation assay; format: biochemical; conditions: 2 h incubation with enzyme at 37 °C
T2 sequence (P33072 170-418): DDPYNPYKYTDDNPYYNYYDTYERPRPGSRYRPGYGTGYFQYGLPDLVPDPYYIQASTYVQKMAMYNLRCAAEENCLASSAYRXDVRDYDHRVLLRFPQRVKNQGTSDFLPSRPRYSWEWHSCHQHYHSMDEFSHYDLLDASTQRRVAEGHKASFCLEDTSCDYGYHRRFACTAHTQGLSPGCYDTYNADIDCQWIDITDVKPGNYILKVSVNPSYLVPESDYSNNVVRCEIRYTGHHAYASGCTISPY
Experimental: as §1

IC50 [3] [µM] | IC50 [4] [µM] | SMILES | also measured
 |  | CS(=O)(=O)c1cc(-c2ccccc2)cc(S(=O)(=O)c2ccc(CN)s2)c1 [CCT365623] | Metastasis and survival [1]: reduce metastasis and increase survival
 |  | COc1cc2c(c(OC)c1OC)-c1ccc(OC)c(=O)cc1[C@@H](NC(C)=O)CC2 [colchicine] | Effect on surface scarring ([2]; human, in vivo): measurable beneficial effect on surface scarring
 |  | CC(C)(S)[C@@H](N)C(=O)O [penicillamine] | Effect on surface scarring ([2]; BAPN or penicillamine, and colchicine, following excision of keloid and grafting): measurable beneficial effect on surface scarring
< 2 | < 5 | Cc1ccc(S(=O)(=O)C/C(=C/F)CN)cc1 [Compound 4, (E)-3-fluoro-2-(tosylmethyl)prop-2-en-1-amine] | 
< 2 | < 2 | CS(=O)(=O)c1ccc(S(=O)(=O)C/C(=C/F)CN)cc1 [Compound 21, (E)-3-fluoro-2-(((4-(methylsulfonyl)phenyl)sulfonyl)methyl)prop-2-en-1-amine] | 
< 2 | < 5 | CS(=O)(=O)c1cccc(Oc2ccccc2S(=O)(=O)C/C(=C/F)CN)c1 [Compound 35, (E)-3-fluoro-2-(((2-(3-(methylsulfonyl)phenoxy)phenyl)sulfonyl)methyl)prop-2-en-1-amine] | 
< 2 | < 2 | Cc1ccn(-c2cccc(S(=O)(=O)C/C(=C/F)CN)c2)n1 [Compound 18, (E)-3-fluoro-2-(((3-(3-methyl-1H-pyrazol-1-yl)phenyl)sulfonyl)methyl)prop-2-en-1-amine] | 
